The term melting point denotes the temperature of the solid-liquid transition. Broadly, the IC50 is the concentration that gives 50% inhibition.

Data on 30 molecules can be found in patent US6362188B1, “Farnesyl protein transferase inhibitors” (Schering Corporation, priority 1998, dated 2002).

One data set deals with Human tumor cells. Briefly: Soft Agar Assay (anchorage-independent growth). Format: cell-based. Conditions: colony outgrowth in soft agar, stated as a range for the group. In outline: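 Tumor cells suspended in 0.3% agarose over a 0.6% agarose base, both layers containing the same farnesyl transferase inhibitor concentration. Incubated 10-16 days at 37° C, 5% CO2; colonies stained with MTT (1 mg/mL in PBS) and counted, IC50 determined.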

The molecule `Cc1cn(C[C@@H]2CCCN(C(=O)[C@H]3CN([C@@H]4c5ccc(Cl)cc5CCc5cc(F)cnc54)CCN3C(=O)OC(C)(C)C)C2)cn1` [Example 260] registered a melting point of 110 to 116 °C. The IC50 in the data set on Human tumor cells fell in the range of 0.05 to 30 nM.
`Cc1cn(C[C@H]2CCCN(C(=O)[C@H]3CN([C@@H]4c5ccc(Cl)cc5CCc5cc(Cl)cnc54)CCN3C(=O)OC3CCCCC3)C2)cn1` [Example 258]: the melting point lay in the range of 115 to 128 °C. In addition, the IC50 in the data set with Human tumor cells was 0.05 to 30 nM.
The corresponding values for `Cc1cn(C[C@@H]2CCCN(C(=O)[C@H]3CN([C@H]4c5ccc(Cl)cc5CCc5cccnc54)CCN3C(=O)OCC(C)(C)C)C2)cn1` [Example 411] are 103 to 115 °C and 0.05 to 30 nM.
The molecule `O=C(C1CN(C2c3ccc(Cl)cc3CCc3cccnc32)CCN1C(=O)OC1CCCCC1)N1CCCC(Oc2cccnc2)C1` (stereo not drawn) [47(U)] showed a melting point of 117 to 120 °C. The same molecule had an IC50 with Human tumor cells of 0.05 to 30 nM.
Regarding `CC(C)(C)OC(=O)N1CCN([C@@H]2c3ccc(Cl)cc3CCc3cc(Br)cnc32)C[C@@H]1C(=O)N1CCC[C@H](Cn2ccnc2)C1` [Example 10], the melting point was in the range of 130 to 134 °C. This molecule also returned an IC50 in the data set on Human tumor cells of 0.5 to 30 nM.
The molecule `Cc1cn(C[C@@H]2CCCN(C(=O)[C@H]3CN([C@H]4c5ccccc5CCc5cc(Br)cnc54)CCN3C(=O)OC(C)(C)C)C2)cn1` [Example 323] came in with a melting point of 109 to 124 °C. Moreover, the IC50 with Human tumor cells was 0.05 to 30 nM.
The molecule `Cc1cn(C[C@@H]2CCCN(C(=O)[C@H]3CN([C@@H]4c5ccccc5CCc5cc(Br)cnc54)CCN3C(=O)OC(C)(C)C)C2)cn1` [Example 324] came in with a melting point of 102 to 119 °C. Moreover, the IC50 in the data set with Human tumor cells was in the range of 0.05 to 30 nM.
As for `CC(C)(C)OC(=O)N1CCN([C@H]2c3ccc(Cl)cc3CCc3cc(Br)cnc32)C[C@@H]1C(=O)N1CCC[C@@H](Cn2ccnc2)C1` [Example 13], the melting point lay within 127 to 130 °C. In the data set with Human tumor cells, this molecule gave an IC50 of 0.5 to 30 nM.
The corresponding values for `Cc1cn(CC2CCCN2C(=O)C2CN(C3c4ccc(Cl)cc4CCc4cccnc43)CCN2C(=O)OC(C)(C)C)cn1` (stereo not drawn) [35(F)] are 115 to 120 °C and 0.05 to 30 nM.
The corresponding values for `Cc1cn(C[C@H]2CCCN(C(=O)[C@H]3CN([C@@H]4c5ccc(Cl)cc5CCc5cc(F)cnc54)CCN3C(=O)OC3CCCCC3)C2)cn1` [Example 290] are 121 to 125 °C and 0.05 to 30 nM.
In turn, `O=C([C@H]1CN([C@@H]2c3ccc(Cl)cc3CCc3cc(Br)cnc32)CCN1C(=O)OC1CCCCC1)N1CCC[C@@H](Cn2ccnc2)C1` [Example 15] gave a melting point of 140 to 144 °C. Besides, the IC50 in the data set on Human tumor cells fell in the range of 0.5 to 30 nM.
In turn, `Cc1cn(C[C@@H]2CCCN(C(=O)[C@H]3CN([C@H]4c5ccccc5CCc5cc(Br)cnc54)CCN3C(=O)OC3CCCCC3)C2)cn1` [Example 351] showed a melting point of 120 to 124 °C. Also, the half-maximal inhibitory concentration (IC50) with Human tumor cells lay in the range of 0.05 to 30 nM.
`Cc1cn(C[C@@H]2CCCN(C(=O)[C@H]3CN([C@@H]4c5ccc(Cl)cc5CCc5cc(Cl)cnc54)CCN3C(=O)OC3CCCCC3)C2)cn1` [Example 256] showed a melting point of 122 to 128 °C. The same molecule returned an IC50 in the data set with Human tumor cells of 0.05 to 30 nM.
As to `Cc1cn(CC2CCCN(C(=O)C3CN(C4c5ccccc5CCc5cc(Cl)cnc54)CCN3C(=O)OC(C)(C)C)C2)cn1` (single isomer, unassigned) [Example 291], the melting point lay within 99 to 107 °C. Also, the IC50 in the data set on Human tumor cells fell in the range of 0.05 to 30 nM.
As to `Cc1nccn1CC1CCCN(C(=O)C2CN(C3c4ccc(Cl)cc4CCc4cccnc43)CCN2C(=O)OC(C)(C)C)C1` (single isomer, unassigned) [Example 27], the melting point lay within 110 to 119 °C. Besides, in the data set with Human tumor cells, the IC50 was in the range of 0.5 to 30 nM.
For `Cc1cn(C[C@@H]2CCCN(C(=O)[C@H]3CN([C@H]4c5ccc(Cl)cc5CCc5cccnc54)CCN3C(=O)Cc3cc[n+]([O-])cc3)C2)cn1` [Example 412], the melting point was 175 °C (dec.). Further, the IC50 in the data set with Human tumor cells fell in the range of 0.05 to 30 nM.
In the case of `Cc1cn(CC2CCCN(C(=O)C3CN(C4c5ccc(Cl)cc5CCc5cc(Br)cnc54)CCN3C(=O)OC(C)(C)C)C2)cn1` (stereo not drawn) [Example 4.1], the melting point fell in the range of 114 to 121 °C. The IC50 with Human tumor cells was in the range of 0.5 to 30 nM.
In turn, `Cc1cn(C[C@@H]2CCCN(C(=O)[C@H]3CN([C@H]4c5ccc(Cl)cc5CCc5cc(Cl)cnc54)CCN3C(=O)OC(C)(C)C)C2)cn1` [Example 227] displayed a melting point of 100 to 116 °C. The molecule also registered an IC50 in the data set with Human tumor cells of 0.05 to 30 nM.
In turn, `Cc1cn(C[C@H]2CCCN(C(=O)[C@H]3CN([C@@H]4c5ccc(Cl)cc5CCc5cc(F)cnc54)CCN3C(=O)OC(C)(C)C)C2)cn1` [Example 262] had a melting point of 122 to 126 °C. In addition, the half-inhibitory concentration (IC50) in the data set with Human tumor cells was 0.05 to 30 nM.
For the molecule `Cc1cn(C[C@@H]2CCCN(C(=O)[C@H]3CN([C@H]4c5ccc(Cl)cc5CCc5cc(Br)cnc54)CCN3C(=O)Cc3ccc(F)cc3)C2)cn1` [Example 197], the melting point fell in the range of 105 to 110 °C. Moreover, the IC50 with Human tumor cells was 0.05 to 30 nM.
The corresponding values for `Cc1cn(CC2CCCN(C(=O)C3CN(C4c5ccc(Cl)cc5CCc5cccnc54)CCN3C(=O)OC(C)(C)C)C2)cn1` (single isomer, unassigned) [Example 29] are 109 to 124 °C and 0.5 to 30 nM.
On to `CN1CCN(C(=O)C2CN(C3c4ccc(Cl)cc4CCc4cc(Br)cnc43)CCN2C(=O)OC(C)(C)C)CC1Cn1ccnc1` (stereo not drawn) [Example 5], for which the melting point was 123 to 134 °C. Moreover, the IC50 with Human tumor cells is 0.5 to 30 nM.
Molecule `Cc1cn(C[C@@H]2CCCN(C(=O)[C@H]3CN([C@@H]4c5ccc(Cl)cc5CCc5cc(F)cnc54)CCN3C(=O)OC3CCCCC3)C2)cn1` [Example 288] yielded a melting point of 128 to 134 °C. In the data set with Human tumor cells, this molecule came in with an IC50 of 0.05 to 30 nM.
As to `CC(C)(C)OC(=O)N1CCN([C@@H]2c3ccc(Cl)cc3CCc3cc(Br)cnc32)C[C@@H]1C(=O)N1CCC[C@@H](Cn2ccnc2)C1` [Example 12], the melting point lay within 135 to 138 °C. The same molecule yielded an IC50 in the data set on Human tumor cells of 0.5 to 30 nM.
Molecule `Cc1cn(C[C@@H]2CCCN(C(=O)[C@H]3CN([C@@H]4c5ccccc5CCc5cc(Cl)cnc54)CCN3C(=O)OC3CCCCC3)C2)cn1` [Example 320] gave a melting point of 115 to 120 °C. The same molecule showed an IC50 in the data set on Human tumor cells of 0.05 to 30 nM.
Regarding `Cc1cn(CC2CCCN(C(=O)C3CN(C4c5ccccc5CCc5cc(Br)cnc54)CCN3C(=O)OC3CCCCC3)C2)cn1` (stereo not drawn) [Example 354], the melting point lay in the range of 124 to 128 °C. The molecule further returned an IC50 in the data set with Human tumor cells of 0.05 to 30 nM.
The corresponding values for `CCc1cn(CC2CCCN(C(=O)C3CN(C4c5ccc(Cl)cc5CCc5cccnc54)CCN3C(=O)OC(C)(C)C)C2)cn1` (stereo not drawn) [35(A)] are 110 to 112 °C and 0.05 to 30 nM.
The corresponding values for `Cc1cn(CC2CCCN(C(=O)C3CN(C4c5ccc(Cl)cc5CCc5cc(Cl)cnc54)CCN3C(=O)OC(C)(C)C)C2)cn1` (stereo not drawn) [Example 230] are 121 to 127 °C and 0.05 to 30 nM.
On to `Cc1cn(C[C@H]2CCCN(C(=O)[C@H]3CN([C@H]4c5ccc(Cl)cc5CCc5cc(F)cnc54)CCN3C(=O)OC(C)(C)C)C2)cn1` [Example 261], for which the melting point was in the range of 115 to 118 °C. The molecule further gave an IC50 with Human tumor cells of 0.05 to 30 nM.
Molecule `Cc1nccn1CC1CCCN(C(=O)C2CN(C3c4ccc(Cl)cc4CCc4cccnc43)CCN2C(=O)OC(C)C)C1` (single isomer, unassigned) [Example 38] had a melting point of 92 to 101 °C. In addition, in the data set with Human tumor cells, the IC50 is 0.5 to 30 nM.
